Laboratory results taken from US20230085307A1, “PYRIDAZINONE COMPOUND AND HERBICIDE” (NISSAN CHEMICAL CORPORATION, priority 2019, published 2023).

How the values were obtained:
barnyard grass [1] = assay: Test Example 5: herbicidal effect by foliage application, plastic box (Table 20, symbol H); assay type: in vivo, barnyard grass (Echinochloa crus-galli); conditions: foliage application, 320 g/ha, three weeks after application
How it was run: (§1)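 Foliar spray test: emulsion formulation diluted in water to a set application rate, sprayed onto 14-day-old plants raised in diluvial soil at 25° C to 30° C under glass. Both herbicidal effect and crop effect rated visually three weeks later.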

late watergrass [2] = assay: Test Example 1: herbicidal activity, application before weed generation under submerged conditions (Table 16, symbol A); assay type: in vivo, late watergrass (Echinochloa oryzicola); conditions: amount of applied herbicide 320 g/ha
How it was run: (§2)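 Submerged Wagner pots (alluvial soil, 4 cm water) sown with weed seeds and planted with 2.5-leaf rice seedlings; emulsifiable concentrate diluted in water applied to water surface on sowing day. Held in greenhouse at 25-30 °C; injury scored 0-5 by herbicidal rate after three weeks.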

lambsquarters [3] = assay: Test Example 4: herbicidal effect by soil treatment (Table 19, symbol O); assay type: in vivo, lambsquarters (Chenopodium album); conditions: amount of applied herbicide 320 g/ha
How it was run: (§3)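 Step 1: sow seeds in sterilized diluvial soil, cover ~1.5 cm. Step 2: spray diluted emulsion onto soil surface at predetermined rate. Step 3: greenhouse, 25–30° C, three weeks. Step 4: grade effect on each plant by earlier criteria.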

southern crabgrass [4] = assay: Test Example 4: herbicidal effect by soil treatment (Table 19, symbol F); assay type: in vivo, southern crabgrass (Digitaria ciliaris); conditions: amount of applied herbicide 320 g/ha
How it was run: as §3

velvetleaf [5] = assay: Test Example 4: herbicidal effect by soil treatment (Table 19, symbol M); assay type: in vivo, velvetleaf (Abutilon theophrasti); conditions: amount of applied herbicide 320 g/ha
How it was run: as §3

redroot pigweed [6] = assay: Test Example 4: herbicidal effect by soil treatment (Table 19, symbol N); assay type: in vivo, redroot pigweed (Amaranthus retroflexus); conditions: amount of applied herbicide 320 g/ha
How it was run: as §3

redroot pigweed [7] = assay: Test Example 5: herbicidal effect by foliage application, plastic box (Table 20, symbol N); assay type: in vivo, redroot pigweed (Amaranthus retroflexus); conditions: foliage application, 320 g/ha, three weeks after application
How it was run: as §1

lambsquarters [8] = assay: Test Example 5: herbicidal effect by foliage application, plastic box (Table 20, symbol O); assay type: in vivo, lambsquarters (Chenopodium album); conditions: foliage application, 320 g/ha, three weeks after application
How it was run: as §1

barnyard grass [9] = assay: Test Example 3: herbicidal effect by foliage application, Wagner pot (Table 18, symbol H); assay type: in vivo, barnyard grass (Echinochloa crus-galli); conditions: amount of applied herbicide 320 g/ha
How it was run: (§4)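 Plants were sown in alluvial soil held under 0.1–0.5 cm standing water and grown 14 days in a greenhouse at 25–30 °C. An emulsifiable formulation, water-diluted to the set dose, was then sprayed onto the foliage, and effects were scored three weeks later using previously defined criteria.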

rice flat sedge = assay: Test Example 3: herbicidal effect by foliage application, Wagner pot (Table 18, symbol E); assay type: in vivo, rice flat sedge (Cyperus iria); conditions: amount of applied herbicide 320 g/ha
How it was run: as §4

late watergrass [10] = assay: Test Example 2: herbicidal activity, application during weed generation under submerged conditions (Table 17, symbol A); assay type: in vivo, late watergrass (Echinochloa oryzicola); conditions: AAH 320 g/ha; application during weed generation, submerged conditions
How it was run: (§5)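 3-wk visual-criteria score after one water-surface dose. Emulsion formulation, water-diluted to set rate; applied at 1–2 leaf stage; alluvial soil, 4 cm standing water; seeds co-sown; greenhouse 25–30° C.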

Japanese bulrush [11] = assay: Test Example 2: herbicidal activity, application during weed generation under submerged conditions (Table 17, symbol B); assay type: in vivo, Japanese bulrush (Schoenoplectus juncoides); conditions: AAH 320 g/ha; application during weed generation, submerged conditions
How it was run: as §5

oval-leafed pondweed [12] = assay: Test Example 2: herbicidal activity, application during weed generation under submerged conditions (Table 17, symbol C); assay type: in vivo, oval-leafed pondweed (Monochoria vaginalis); conditions: AAH 320 g/ha; application during weed generation, submerged conditions
How it was run: as §5

southern crabgrass [13] = assay: Test Example 5: herbicidal effect by foliage application, plastic box (Table 20, symbol F); assay type: in vivo, southern crabgrass (Digitaria ciliaris); conditions: foliage application, 320 g/ha, three weeks after application
How it was run: as §1

Japanese bulrush [14] = assay: Test Example 1: herbicidal activity, application before weed generation under submerged conditions (Table 16, symbol B); assay type: in vivo, Japanese bulrush (Schoenoplectus juncoides); conditions: amount of applied herbicide 320 g/ha
How it was run: as §2

green foxtail [15] = assay: Test Example 4: herbicidal effect by soil treatment (Table 19, symbol G); assay type: in vivo, green foxtail (Setaria viridis); conditions: amount of applied herbicide 320 g/ha
How it was run: as §3

oval-leafed pondweed [16] = assay: Test Example 1: herbicidal activity, application before weed generation under submerged conditions (Table 16, symbol C); assay type: in vivo, oval-leafed pondweed (Monochoria vaginalis); conditions: amount of applied herbicide 320 g/ha
How it was run: as §2

Chinese sprangletop = assay: Test Example 3: herbicidal effect by foliage application, Wagner pot (Table 18, symbol D); assay type: in vivo, chinese sprangletop (Leptochloa chinensis); conditions: amount of applied herbicide 320 g/ha
How it was run: as §4

green foxtail [17] = assay: Test Example 5: herbicidal effect by foliage application, plastic box (Table 20, symbol G); assay type: in vivo, green foxtail (Setaria viridis); conditions: foliage application, 320 g/ha, three weeks after application
How it was run: as §1

velvetleaf [18] = assay: Test Example 5: herbicidal effect by foliage application, plastic box (Table 20, symbol M); assay type: in vivo, velvetleaf (Abutilon theophrasti); conditions: foliage application, 320 g/ha, three weeks after application
How it was run: as §1

barnyard grass [19] = assay: Test Example 4: herbicidal effect by soil treatment (Table 19, symbol H); assay type: in vivo, barnyard grass (Echinochloa crus-galli); conditions: amount of applied herbicide 320 g/ha
How it was run: as §3

Structure (SMILES) | Herbicidal effect, A: late watergrass (late watergrass [2]) | herbicidal effect, O: lambsquarters (lambsquarters [3]) | herbicidal effect, F: southern crabgrass (southern crabgrass [4]) | herbicidal effect, M: velvetleaf (velvetleaf [5]) | herbicidal effect, N: redroot pigweed (redroot pigweed [6]) | N: redroot pigweed, herbicidal effect grade (redroot pigweed [7]) | O: lambsquarters, herbicidal effect grade (lambsquarters [8]) | herbicidal effect on H: barnyard grass (barnyard grass [9]) | herbicidal effect on E: rice flat sedge (rice flat sedge) | herbicidal effect rating, A: late watergrass (late watergrass [10]) | herbicidal effect rating, B: Japanese bulrush (Japanese bulrush [11]) | herbicidal effect rating, C: oval-leafed pondweed (oval-leafed pondweed [12]) | F: southern crabgrass, herbicidal effect grade (southern crabgrass [13]) | Herbicidal effect, B: Japanese bulrush (Japanese bulrush [14]) | herbicidal effect, G: green foxtail (green foxtail [15]) | Herbicidal effect, C: oval-leafed pondweed (oval-leafed pondweed [16]) | herbicidal effect on D: Chinese sprangletop (Chinese sprangletop) | G: green foxtail, herbicidal effect grade (green foxtail [17]) | M: velvetleaf, herbicidal effect grade (velvetleaf [18]) | herbicidal effect, H: barnyard grass (barnyard grass [19]) | other results
COCCOc1ccc(-c2sc3ccc(F)cc3c2-c2c(O)c(Cl)nn(C)c2=O)cc1 [2-440] | 3 (Herbicidal rate of 40% or more and less than 70%) | 5 (Herbicidal rate of 90% or more (almost completely withered)) | 3 (Herbicidal rate of 40% or more and less than 70%) | 4 (Herbicidal rate of 70% or more and less than 90%) | 5 (Herbicidal rate of 90% or more (almost completely withered)) | 5 (Herbicidal rate of 90% or more (almost completely withered)) | 5 (Herbicidal rate of 90% or more (almost completely withered)) | 5 (Herbicidal rate of 90% or more (almost completely withered)) | 0 (Herbicidal rate of 5% or less (almost no effect)) | 3 (Herbicidal rate of 40% or more and less than 70%) | 3 (Herbicidal rate of 40% or more and less than 70%) | 3 (Herbicidal rate of 40% or more and less than 70%) | 5 (Herbicidal rate of 90% or more (almost completely withered)) | 4 (Herbicidal rate of 70% or more and less than 90%) | 5 (Herbicidal rate of 90% or more (almost completely withered)) | 3 (Herbicidal rate of 40% or more and less than 70%) | 0 (Herbicidal rate of 5% or less (almost no effect)) | 5 (Herbicidal rate of 90% or more (almost completely withered)) | 5 (Herbicidal rate of 90% or more (almost completely withered)) | 3 (Herbicidal rate of 40% or more and less than 70%) | H: barnyard grass, herbicidal effect grade (barnyard grass [1]): 5 (Herbicidal rate of 90% or more (almost completely withered))
COc1ccc2sc(-c3ccc(Cl)cc3)c(-c3c(O)c(C)nn(C)c3=O)c2c1 [2-450] | 2 (Herbicidal rate of 20% or more and less than 40%) | 2 (Herbicidal rate of 20% or more and less than 40%) | 0 (Herbicidal rate of 5% or less (almost no effect)) | 0 (Herbicidal rate of 5% or less (almost no effect)) | 3 (Herbicidal rate of 40% or more and less than 70%) | 5 (Herbicidal rate of 90% or more (almost completely withered)) | 5 (Herbicidal rate of 90% or more (almost completely withered)) | 3 (Herbicidal rate of 40% or more and less than 70%) | 5 (Herbicidal rate of 90% or more (almost completely withered)) | 3 (Herbicidal rate of 40% or more and less than 70%) | 2 (Herbicidal rate of 20% or more and less than 40%) | 0 (Herbicidal rate of 5% or less (almost no effect)) | 0 (Herbicidal rate of 5% or less (almost no effect)) | 3 (Herbicidal rate of 40% or more and less than 70%) | 0 (Herbicidal rate of 5% or less (almost no effect)) | 0 (Herbicidal rate of 5% or less (almost no effect)) | 0 (Herbicidal rate of 5% or less (almost no effect)) | 0 (Herbicidal rate of 5% or less (almost no effect)) | 5 (Herbicidal rate of 90% or more (almost completely withered)) | 0 (Herbicidal rate of 5% or less (almost no effect)) | 
COCC[S+]([O-])c1ccc(-c2sc3ccc(F)cc3c2-c2c(O)c(C)nn(C)c2=O)cc1 (centres unmarked) [2-454] | 3 (Herbicidal rate of 40% or more and less than 70%) | 4 (Herbicidal rate of 70% or more and less than 90%) | 5 (Herbicidal rate of 90% or more (almost completely withered)) | 3 (Herbicidal rate of 40% or more and less than 70%) | 5 (Herbicidal rate of 90% or more (almost completely withered)) | 5 (Herbicidal rate of 90% or more (almost completely withered)) | 5 (Herbicidal rate of 90% or more (almost completely withered)) | 5 (Herbicidal rate of 90% or more (almost completely withered)) | 5 (Herbicidal rate of 90% or more (almost completely withered)) | 2 (Herbicidal rate of 20% or more and less than 40%) | 0 (Herbicidal rate of 5% or less (almost no effect)) | 0 (Herbicidal rate of 5% or less (almost no effect)) | 5 (Herbicidal rate of 90% or more (almost completely withered)) | 0 (Herbicidal rate of 5% or less (almost no effect)) | 5 (Herbicidal rate of 90% or more (almost completely withered)) | 0 (Herbicidal rate of 5% or less (almost no effect)) | 2 (Herbicidal rate of 20% or more and less than 40%) | 5 (Herbicidal rate of 90% or more (almost completely withered)) | 5 (Herbicidal rate of 90% or more (almost completely withered)) | 4 (Herbicidal rate of 70% or more and less than 90%) | H: barnyard grass, herbicidal effect grade (barnyard grass [1]): 5 (Herbicidal rate of 90% or more (almost completely withered))
